Results: US20180059115A1, “METHODS FOR MONITORING POLYMORPHONUCLEAR MYELOID DERIVED SUPPRESSOR CELLS, AND COMPOSITIONS AND METHODS OF TREATMENT OF CANCER” (The Wistar Institute of Anatomy and Biology, priority 2016, published 2018)
“Also recorded” adds a separate entry of the source.

Columns and labels:
T lymphocytes [1] = experiment: Three-way allogeneic MLR suppression assay (thymidine incorporation); assay type: cell-based, human; settings: 1 μM NAC, 1000 U/ml catalase, 20 μM Nor-NOHA, 1:2 PMN:T cell ratio
Excerpt: Whole blood was enriched for PMNs using MACSxpress® Neutrophil Isolation Kit (Miltenyi) following the protocol provided by the manufacturer. Cells were then labeled with anti-Lox1-PE mAb (Biolegend) and then separated using anti-PE beads and MACS column (Miltenyi). For the three-way allogenic MLR suppression assay, T lymphocytes from one healthy donor were purified using the Human CD3+ T Cell Enrichment Column Kit (R&D Systems) and used as responder cells. Dendritic cells were generated from adherent monocytes from another healthy donor in the presence of 25 ng/mL GM-CSF and 25 ng/mL IL-4 (Peprotech) for 6 days and used as stimulator cells. Responder and stimulator cells were then mixed at a 10:1 ratio followed by the addition of Lox1+ or Lox1− PMNs. T lymphocyte proliferation was assessed after 5 days of culture by thymidine incorporation.
In some experiments, 1 μM N-acetyl cysteine (NAC; Sigma) or 20 μM of Nω-hydroxy-norarginine (nor-NOHA; Cayman Chemical) was added to the culture media to block ROS or agrinase I activity, respectively. T lymphocyte proliferation was assessed after 5 days of culture by thymidine incorporation.

hepatic L02 cells = settings: cited from earlier work
[2] = system: PMN isolated from healthy donors; experiment: LOX-1 expression in PMN treated with cytokines or tumor-cell conditioned medium; assay type: cell-based, human; settings: healthy donor PMN, 24 hr culture, GM-CSF added; TCM 20% v/v
Method: FIGS. 11A and 11B show the mechanism regulating LOX-1 expression on PMN-MDSC, specifically the percentage of LOX-1+ PMN (FIG. 11A) and expression of LOX-1 (FIG. 11B) in PMN isolated from 4 healthy donors and treated with indicated cytokines. Range of concentrations based on reported data were tested and only one for each cytokine is shown. Conditioned medium from PCI30 tumor cells (TCM) was used at 20% v/v concentration. Mean and SD are shown.
What could induce LOX-1 up-regulation in PMN-MDSC? Based on the fact that in endothelial cells LOX-1 can be induced by pro-inflammatory cytokines^35, we tested the effect of several cytokines as well as tumor-cell conditioned medium (TCM) on LOX-1 expression in PMN isolated from healthy donors. None of the tested pro-inflammatory cytokines (IL-1β, TNFα, IL-6) or TCM induced upregulation of LOX-1 in PMN after 24 hr culture (GM-CSF was added to protect PMN viability) (FIGS. 11A and 11B).

[3] = system: PMN isolated from healthy donors; experiment: In vitro PMN LOX-1 induction by ER stress inducers, LOX-1 by flow cytometry; assay type: cell-based, human; settings: overnight with GM-CSF, THG 1 μM, DTT 1 mM
Method: (§1) PMNs from healthy donors were isolated on a Histopaque gradient. 5×10^5 cells/ml were cultured for 12 hrs with 10 ng/ml of GM-CSF in the presence of dithiothreitol (DTT) (0.5, 1, 2 mM; Sigma), tunicamycin (0.5, 1, and 2 μg/ml; Sigma-Aldrich), or thapsigargin (0.5, 1, and 2 μM; Sigma). In some instances, 20 μM of the XBP-1 inhibitor BIO9 was added 3 hours prior to culture. Cells were then stained for flow cytometry or used for functional assays as described above.
Flow cytometry data were acquired using a BD LSR II flow cytometer and analyzed using FlowJo software (Tree Star) Immunofluorescent microscopy: Following deparaffinization and rehydration, heat induced antigen retrieval was performed using Tris-EDTA buffer pH 9. Followed by blocking with 5% BSA, tissues were stained with Lox1 antibody (Abcam; Cat no ab126538) and CD15 antibody (BD biosciences; Cat no 555400) at 1:200 dilution in 5% BSA each for 1 hour at room temperature. The following secondary antibodies were used Alexa Fluor anti-rabbit A647 (1:200 dilution in 5% BSA, Life technologies) for Lox1 and anti-mouse A514 (1:400 dilution in 5% BSA, Life technologies) for CD15 staining. CD15 staining was pseudo colored red and Lox1 staining was pseudo colored green. Nucleus was stained using DAPI (1:5000 dilution in PBS, Life technologies). Images were obtained using Leica TCS SP5 Confocal microscope. […]

T lymphocytes [4] = experiment: CD3/CD28 induced T-cell proliferation suppression assay (3H-thymidine uptake); assay type: cell-based, human; settings: healthy donor PMN treated overnight with 1 μM THG, washed
Method: Concurrently, T-lymphocytes were isolated from the PBMC of the same patient as LOX-1+ PMN using human CD3+ T Cell Enrichment Column Kit. PMNs were plated at different ratios with […] T lymphocytes in a 96-well plate coated with 10 μg/ml anti-CD3 (clone UCHT1; BD Biosciences) followed by the addition of 1 μg/ml of soluble anti-CD28 (clone CD28.2; BD Biosciences). T lymphocyte proliferation was assessed after 3 days of culture by thymidine incorporation.
as §1

Row | Compound | effect on LOX-expression in PMN / immune suppressive activity of LOX-1+ PMN-MDSC (T lymphocytes [1]) | upregulation of LOX-1 in PMN [2] | also measured
1 | CC(=O)N[C@@H](CS)C(=O)O [NAC, N-acetylcysteine] | substantially decreased LOX-expression |  | 
2 | tunicamycin |  |  | LOX-1 expression under ER stress (hepatic L02 cells): caused down-regulation of LOX-1
3 | IL-1β: pro-inflammatory cytokine |  | None | 
4 | O[C@H](CS)[C@H](O)CS (racemic) [DTT, dithiothreitol] |  |  | LOX-1 expression in PMN [3]: dramatic up-regulation of LOX-1 expression
5 | C/C=C(/C)C(=O)O[C@H]1C(C)=C2[C@H]([C@@H]1OC(=O)CCCCCCC)[C@@](C)(OC(C)=O)C[C@H](OC(=O)CCC)[C@@]1(O)[C@H]2OC(=O)[C@@]1(C)O [THG, thapsigargin] |  |  | LOX-1 expression in PMN [3]: dramatic up-regulation of LOX-1 expression; immune suppressive activity of treated PMN (T-cell proliferation) (T lymphocytes [4]): caused acquisition of potent immune suppressive activity; also recorded: converted PMN to PMN-MDSC
6 | N=C(NO)NCC[C@H](N)C(=O)O [Nor-NOHA, Nω-hydroxy-norarginine] | substantially decreased LOX-expression |  | 
7 | IL-6: pro-inflammatory cytokine |  | None | 
8 | TNFα |  | None | 
9 | catalase | substantially decreased LOX-expression |  | 
